Assay results from patent US4005132A, “Process for reacting trialkyl boranes with compounds containing protons” (Studiengesellschaft Kohle m.b.H., priority 1971, dated 1977).

Columns and labels:
[1] = Thermal stability (vacuum distillation / decomposition on heating); assay type: physicochemical
[2] = Solubility of diethylborylated sugars and polysaccharides; assay type: physicochemical

Structure (SMILES)	stability on distillation under high vacuum ([1]; high vacuum, 136° C.)	stability on vacuum distillation [1]	solubility in hydrocarbons [2]	Decomposition of the compound begins at ([1]; with evolution of triethyl borane)	solubility in aliphatic and aromatic hydrocarbons and in carbon tetrachloride ([2]; aliphatic and aromatic hydrocarbons and carbon tetrachloride)
CCB(CC)OC[C@H]1OC(OB(CC)CC)[C@H](OB(CC)CC)[C@@H](OB(CC)CC)[C@@H]1OB(CC)CC (single isomer, unassigned) [1,2,3,4,5-Pentakis-diethyl-boryl-D(+)-glucose]	without decomposition	without decomposition	very readily soluble		
CCB(CC)OC[C@H]1O[C@H](OC)[C@H](OB(CC)CC)[C@@H](OB(CC)CC)[C@@H]1OB(CC)CC [2,3,4,6-tetrakis(diethylboryl)-α-methyl-D-(+)-glucoside]		without decomposition	very readily soluble		
CCB(CC)OC[C@H](OB(CC)CC)[C@H]1OC(=O)C(OB(CC)CC)=C1OB(CC)CC [2.3.5.6-Tetrakis-diethylboryl-L(+)-ascorbic acid]		without decomposition	very readily soluble		
CCB(CC)OC[C@H]1O[C@@H]2O[C@H]3[C@H](OB(CC)CC)[C@@H](OB(CC)CC)[C@@H](O[C@H]4[C@H](OB(CC)CC)[C@@H](OB(CC)CC)[C@@H](O[C@H]5[C@H](OB(CC)CC)[C@@H](OB(CC)CC)[C@@H](O[C@H]6[C@H](OB(CC)CC)[C@@H](OB(CC)CC)[C@@H](O[C@H]7[C@H](OB(CC)CC)[C@@H](OB(CC)CC)[C@@H](O[C@H]8[C@H](OB(CC)CC)[C@@H](OB(CC)CC)[C@@H](O[C@H]1[C@H](OB(CC)CC)[C@H]2OB(CC)CC)O[C@@H]8COB(CC)CC)O[C@@H]7COB(CC)CC)O[C@@H]6COB(CC)CC)O[C@@H]5COB(CC)CC)O[C@@H]4COB(CC)CC)O[C@@H]3COB(CC)CC [(I), Per-O-diethylboryl-cyclohepta-amylose]				141 °C	soluble
